For one series, the system named is oocytes from rats. The settings on record: DHEA 1 mg/100 g or 10 mg/100 g body weight, increased with dose and treatment duration; cited from earlier work.
The next series has as its system murine ESCs. In words: In vitro decidualization of primary murine ESCs (Prp mRNA). The class given is cell-based, mouse. Conditions: 3 days in vitro culture. The text has this: (§1) In order to confirm that this is not a side effect of ESC immortalization with telomerase overexpression in this human cell line, the effect of DHEA on decidualization of primary ESC cultures from mouse and human uteri was also investigated. Murine ESCs were isolated from the gravid uterus at 4 days post coitus and cultured in vitro for 3 days to induce decidualization as described in the Methods. […] The human primary ESCs were isolated from uteri following hysterectomy for benign disease as outlined in the Methods and cultured in decidualization media for 9 days.
For in vitro decidualization of ESCs, female mice were sacrificed at 4dpc. Pregnancy was confirmed by flushing dissected uterine horns and ostia with HBSS and observing for presence of blastocysts. Uteri confirmed for pregnancy were cut into 1 mm^3 pieces and incubated in Dulbecco's modified Eagle's Medium:F12 medium (DMEM:F12) without phenol red supplemented with 2 g/liter Collagenase Type I (Gibco) for 60-90 min at 37° C. Tissues were vortexed every 15 min during incubation. Following incubation, the solution was passed through a 40 μm sieve (BD Falcon) and centrifuged at 1100 rpm for 5 min. […]

In the next series the test system is denuded GV oocytes. In words: ATP and citrate levels in single denuded GV oocytes of DHEA-fed mice. The class given is in vivo, mouse. The text has this:
COCs were collected following superovulation with PMSG. Ovaries were removed and placed in M2 media (Sigma, St. Louis, Mo., USA). COCs were obtained by rupture of antral follicles with a syringe and needle. To collect denuded germinal vesicle (GV) oocytes, the cumulus cells were removed by gentle pipetting. The oviducts were removed from PMSG- and hCG-primed mice. The ampulla of the oviduct was punctured to release the clutch of ovulated oocytes 24 hr after hCG.
Denuded oocytes or cultured blastocysts were frozen on a glass slide with liquid nitrogen and dried overnight at −35° C. under vacuum. Individual oocytes or blastocysts were extracted in nanoliter volume under oil. Assays were designed to measure ATP, citrate and G6PDH by linking with NAD/NADH or NADP/NADPH which are enzymatically amplified in a cycling reaction allowing products to be measured by fluorometry.

For series [1], the system named is FVB/NJ mice. In words: Serum hormone concentration in DHEA-fed mice (ELISA). The class given is in vivo, mouse. The text has this:
(§2) Female FVB/NJ mice were obtained from Jackson Laboratories (Bar Harbor, Me., USA). Regular rodent chow was supplemented with DHEA at 0.01%, 0.1% and 0.6% w/w. Three-week-old mice had access to food and water ad libitum. Mice were fed control or DHEA-supplemented chow for two weeks. The Animal Studies Committee at Washington University School of Medicine reviewed and approved all animal experiments. Animals were maintained according to the Guide for the Care and Use of Laboratory Animals provided by the Institute for Laboratory Animal Research.
Control and DHEA-fed mice were superovulated with 10 IU pregnant mare serum gonadotropin (PMSG) by i.p. injection. DHEA, estradiol and testosterone serum concentrations were measured 48 hours later. For progesterone concentrations, mice were given an i.p. injection of 10 IU hCG 48 hours after PMSG and blood was collected 24 hours later. Mice were anesthetized with 50 μl ketamine and xylazine (1:1) and blood was collected by cardiac puncture. Serum was separated by centrifugation and stored at −20° C. ELISA assays were used to determine serum hormone concentrations (Alpco, Salem, N.H., USA).

In series [2] the test system is FVB/NJ mice. In words: Ovarian histology and follicle counts in DHEA-fed mice. The class given is in vivo, mouse. Conditions: 0.6% DHEA diet.
Text: as §2
For histological evaluation, one ovary from five mice in each group was fixed in Bouin's solution, transferred to 70% ethanol then embedded in paraffin and serial sectioned at 10 microns. Every tenth section was kept and stained with hematoxylin and eosin. Follicles with visible nuclei were classified as primordial, primary, secondary or antral. Corpora lutea were also counted. Follicle counts from each classification were summed for each mouse.

The subject of a further series is ESC-T cells. In words: In vitro decidualization of immortalized human ESC-T cells (decidualization marker mRNA, morphology). The class given is cell-based. On the set-up: Lowering of PRL and IGFBP1 mRNA expression vs differentiation media only / Morphological change during decidualization: dose or concentration left out as unconfirmed. The text has this:
Decidualization in human cells was monitored by measuring the mRNA expression of two decidualization markers, PRL and IGFBP1.
This NADP+ analog inhibits two enzymes in the PPP, G6PD and 6GPDH, which utilize NADP+ and convert it into NADPH.
Two major results of the PPP are the production of ribose 5-phosphate and regeneration of NADPH. Production of ribose 5-phosphate is a central component in the de novo synthesis of ribonucleosides (RNs) and deoxyribonucleosides (DRNs). […] To address this question, ESC-T cultures were used and the differentiation media was supplemented with RNs and DRNs during treatment with PPP inhibitors.
Endometrial tissue was obtained from human uteri after hysterectomy conducted for benign disease or from endometrial biopsies. Informed consent was obtained from each patient before surgery and protocols were approved by the Human Research Protection Office of Washington University (HRPO#07-0949). Tissues were placed in HBSS and transported to the laboratory. hESCs were isolated and cultured as previously described. In vitro decidualization was performed as previously described with several changes. Cells were seeded in 6-well plates at 2×10^5 cells/well in DMEM:F12 without phenol red, supplemented with 2% heat-inactivated charcoal dextran-stripped calf serum (HyClone) and 50 μg/ml penicillin/streptomycin (Cambrex Bio Science). Cells were treated with 1 μM medroxyprogesterone-17-acetate (MPA) (Sigma) and 0.5 mM N^6, 2′-O-Dibutyryladenosine 3′,5′-cyclic monophosphate sodium salt (db-cAMP) (Sigma). Control samples received 0.1% ethanol vehicle control.
Human immortalized ESC (ESC telomerase immortalized, ESC-T), were decidualized in vitro in the presence of 0, 2.5 or 5 mM GlcN for 9 days.

Another series deals with embryos. In words: Transfer of blastocysts cultured in DHEA to pseudopregnant females. The class given is in vivo, mouse. The method, then:
Mice were superovulated and mated with males of known fertility. Forty-five hours after injection with hCG, the oviducts were removed. Two-cell embryos were collected by flushing the oviducts with human tubal fluid media (HTF) with 0.25% BSA. Embryos were cultured in HTF with BSA and either DMSO, 10 μM DHEA or 100 μM DHEA for 72 hours. In vitro cultured blastocysts were transferred to 2.5 days postcoitus (dpc) pseudopregnant ICR females. Resulting embryos and placentas were collected at 14.5 dpc and fixed with Bouin's solution, embedded in paraffin and sectioned.

For the next series, the system named is human primary ESCs. In words: In vitro decidualization of human primary ESCs (decidualization marker mRNA). The class given is cell-based. The settings on record: 9 days in decidualization media.
Text: as §1
Control samples received 0.1% ethanol vehicle control.

Bounds are passed on as bounds.

Take `C[C@]12CC[C@H](O)CC1=CC[C@@H]1[C@@H]2CC[C@]2(C)C(=O)CC[C@@H]12` [DHEA, dehydroepiandrosterone]: in the series on oocytes from rats, the “Percentage of degenerated oocytes” value was ≤ 70%. In addition, the “Prp mRNA expression” value with murine ESCs is “decreased upon addition of DHEA in a concentration-dependent manner”. Further, in the series with denuded GV oocytes (0.01% DHEA group), the “Citrate, of control” value turned out to be 90%. Also, the “Citrate compared to control” value in the series on denuded GV oocytes (0.1% DHEA group) turned out to be 83%. Also, in the series with FVB/NJ mice [1] (0.01% DHEA supplementation), the “Increase in DHEA serum levels” value amounted to 1.9 fold. Also, the “Serum DHEA” value in the series on FVB/NJ mice [1] (DHEA diets 0.01%, 0.1%, 0.6%, 48 hours after PMSG) is on record as “elevated in the DHEA-fed mice in a dose-dependent fashion”. Besides, in the series with FVB/NJ mice [2], the Ovarian morphology entry was “large cystic structures”. Besides, the “PRL and IGFBP1 decidualization markers” value with ESC-T cells (100 μM DHEA, day 4) was “drastic decrease”. Besides, the “Morphological change during decidualization” value in the series on ESC-T cells (DHEA) was “the morphological progression is halted”. In addition, the “Lowering of PRL and IGFBP1 mRNA expression vs differentiation media only” value with ESC-T cells (DHEA, day 3 of in vitro culture) was 5 fold. Further, in the series on embryos, the “Anomalies in the fetuses or abnormal placental histology” value is reported as “did not lead to increased anomalies” and the “Fetus size at 14.5 dpc” value is “significantly smaller fetuses”. Also, in the series with embryos (p=0.054), the “Placenta size at 14.5 dpc” value is on record as “smaller placentas”. For the same compound, the “Expression of PRL and IGFBP1” value with human primary ESCs is recorded as “decreased in a concentration dependent manner”.

(Values after US9381193B2, “Contraceptive methods and compositions” (WASHINGTON UNIVERSITY, priority 2011, dated 2016).)
